Like-named read-outs stand apart in the source and are kept apart here.
What was measured:
SARS-CoV-2 nsp3-mac1 [1] = molecular target: T1, SARS-CoV-2 nsp3-mac1 (Severe acute respiratory syndrome coronavirus 2, UniProt P0DTD1); assay: biochemical; type: biochemical; details: SARS-CoV-2 nsp3 macrodomain TR-FRET single point
SARS-CoV-2 nsp3-mac1 [2] = molecular target: T1, SARS-CoV-2 nsp3-mac1; assay: biochemical; set-up: SARS-CoV-2 nsp3 macrodomain TR-FRET single point, per cent inhibition, n=2
[3] = read-out: perc_inhibition_mean, batch_name=ASAP-0000196-002
[4] = read-out: perc_inhibition_mean, batch_name=ASAP-0000199-002
[5] = read-out: perc_inhibition_mean, batch_name=ASAP-0000200-002

Work on Cn1nc(NC(=O)c2cc3nccn3c(=O)[nH]2)c2nccnc21 [ASAP-0000125] yielded a perc_inhibition_mean (SARS-CoV-2 nsp3-mac1 [1]; concentration 50.0 uM) of -1.913% and an inhibition at 50 µM (SARS-CoV-2 nsp3-mac1 [2]; read-out: perc_inhibition_mean, batch_name=ASAP-0000125-001) of -1.91%.

Cn1c(C(=O)NCCNC(=O)c2ccco2)cc2c(=O)n3ccccc3nc21 [ASAP-0000126] showed a perc_inhibition_mean (SARS-CoV-2 nsp3-mac1 [1]; concentration 50.0 uM) of -4.472% and an inhibition at 50 µM (SARS-CoV-2 nsp3-mac1 [2]; read-out: perc_inhibition_mean, batch_name=ASAP-0000126-001) of -4.47%.

With CCn1cc(CNc2nc3[nH]cnc3c(=O)[nH]2)nn1 [ASAP-0000127] the perc_inhibition_mean (SARS-CoV-2 nsp3-mac1 [1]; concentration 50.0 uM) was -0.991% and the inhibition at 50 µM (SARS-CoV-2 nsp3-mac1 [2]; read-out: perc_inhibition_mean, batch_name=ASAP-0000127-001) was -0.991%.

O=C(NCc1nc(-c2ccco2)n[nH]1)c1cc(=O)n2ncnc2[nH]1 [ASAP-0000128] showed a perc_inhibition_mean (SARS-CoV-2 nsp3-mac1 [1]; concentration 50.0 uM) of -2.599% and an inhibition at 50 µM (SARS-CoV-2 nsp3-mac1 [2]; read-out: perc_inhibition_mean, batch_name=ASAP-0000128-001) of -2.6%.

COCc1cc(CC(=O)Nc2ncnc3[nH]cnc23)no1 [ASAP-0000129] gave a perc_inhibition_mean (SARS-CoV-2 nsp3-mac1 [1]; concentration 50.0 uM) of 2.968% and an inhibition at 50 µM (SARS-CoV-2 nsp3-mac1 [2]; read-out: perc_inhibition_mean, batch_name=ASAP-0000129-001) of 2.97%.

NS(=O)(=O)c1ccccc1CNc1ncnc2[nH]ccc12 [ASAP-0000130] was tested, and the perc_inhibition_mean (SARS-CoV-2 nsp3-mac1 [1]; concentration 50.0 uM) was 3.656% and the inhibition at 50 µM (SARS-CoV-2 nsp3-mac1 [2]; read-out: perc_inhibition_mean, batch_name=ASAP-0000130-001) was 3.66%.

For O=C(Nc1ccc(C(=O)NCc2c(C(=O)O)[nH]c3ccccc23)cc1)NC1CC1 [ASAP-0000131], the perc_inhibition_mean (SARS-CoV-2 nsp3-mac1 [1]; concentration 50.0 uM) was 86.217% and the inhibition at 50 µM (SARS-CoV-2 nsp3-mac1 [2]; read-out: perc_inhibition_mean, batch_name=ASAP-0000131-001) was 86.2%.

O=C(Nc1cnc2[nH]ncc2c1)C1(c2ccccc2)CC1 [ASAP-0000133] was tested, and the perc_inhibition_mean (SARS-CoV-2 nsp3-mac1 [1]; concentration 50.0 uM) was 3.207% and the inhibition at 50 µM (SARS-CoV-2 nsp3-mac1 [2]; read-out: perc_inhibition_mean, batch_name=ASAP-0000133-001) was 3.21%.

COC(=O)c1cc2c(Oc3ccccc3C#N)ncnc2[nH]1 [ASAP-0000135] showed a perc_inhibition_mean (SARS-CoV-2 nsp3-mac1 [1]; concentration 50.0 uM) of 2.922% and an inhibition at 50 µM (SARS-CoV-2 nsp3-mac1 [2]; read-out: perc_inhibition_mean, batch_name=ASAP-0000135-001) of 2.92%.

O=C(Cn1c(=O)[nH]c2ccccc21)Nc1cnc2[nH]ncc2c1 [ASAP-0000137] was tested, and the perc_inhibition_mean (SARS-CoV-2 nsp3-mac1 [1]; concentration 50.0 uM) was 1.776% and the inhibition at 50 µM (SARS-CoV-2 nsp3-mac1 [2]; read-out: perc_inhibition_mean, batch_name=ASAP-0000137-001) was 1.78%.

For O=C(Nc1cnn(C2CCNCC2)c1)c1ncnc2[nH]ccc12 [ASAP-0000138], the perc_inhibition_mean (SARS-CoV-2 nsp3-mac1 [1]; concentration 50.0 uM) was -1.896% and the inhibition at 50 µM (SARS-CoV-2 nsp3-mac1 [2]; read-out: perc_inhibition_mean, batch_name=ASAP-0000138-001) was -1.9%.

In the case of CC(C)n1cc(S(=O)(=O)Nc2cnc3[nH]ncc3c2)cn1 [ASAP-0000139], the perc_inhibition_mean (SARS-CoV-2 nsp3-mac1 [1]; concentration 50.0 uM) is reported as 1.555% and the inhibition at 50 µM (SARS-CoV-2 nsp3-mac1 [2]; read-out: perc_inhibition_mean, batch_name=ASAP-0000139-001) is reported as 1.55%.

Molecule Cc1cccc(Cl)c1S(=O)(=O)Nc1cnc2[nH]ncc2c1 [ASAP-0000140] has a perc_inhibition_mean (SARS-CoV-2 nsp3-mac1 [1]; concentration 50.0 uM) of -0.254% and an inhibition at 50 µM (SARS-CoV-2 nsp3-mac1 [2]; read-out: perc_inhibition_mean, batch_name=ASAP-0000140-001) of -0.254%.

Work on Cn1c(C(=O)NCCn2cccc2)cc2c(=O)n3ccccc3nc21 [ASAP-0000188] yielded a perc_inhibition_mean (SARS-CoV-2 nsp3-mac1 [1]; concentration 50.0 uM) of 2.262% and an inhibition at 50 µM (SARS-CoV-2 nsp3-mac1 [2]; read-out: perc_inhibition_mean, batch_name=ASAP-0000188-001) of 2.26%.

For CCn1cc(CNc2cc3c(O)ncnc3cn2)nn1 [ASAP-0000189], the perc_inhibition_mean (SARS-CoV-2 nsp3-mac1 [1]; concentration 50.0 uM) was 1.671% and the inhibition at 50 µM (SARS-CoV-2 nsp3-mac1 [2]; read-out: perc_inhibition_mean, batch_name=ASAP-0000189-001) was 1.67%.

Molecule CSc1ccccc1NC(=O)c1ncnc2[nH]ccc12 [ASAP-0000190] has a perc_inhibition_mean (SARS-CoV-2 nsp3-mac1 [1]; concentration 50.0 uM) of -5.805% and an inhibition at 50 µM (SARS-CoV-2 nsp3-mac1 [2]; read-out: perc_inhibition_mean, batch_name=ASAP-0000190-001) of -5.8%.

CSc1cccc(NC(=O)c2ncnc3[nH]ccc23)c1 [ASAP-0000192] showed a perc_inhibition_mean (SARS-CoV-2 nsp3-mac1 [1]; concentration 50.0 uM) of -4.669% and an inhibition at 50 µM (SARS-CoV-2 nsp3-mac1 [2]; read-out: perc_inhibition_mean, batch_name=ASAP-0000192-001) of -4.67%.

For OC[C@@]1(Cc2ccc(F)cc2)CCN(c2ncnc3[nH]ccc23)C1 [ASAP-0000194], the perc_inhibition_mean (SARS-CoV-2 nsp3-mac1 [1]; concentration 50.0 uM) was 5.07% and the inhibition at 50 µM (SARS-CoV-2 nsp3-mac1 [2]; read-out: perc_inhibition_mean, batch_name=ASAP-0000194-001) was 5.07%.

Cc1ncc(NCc2cnc3c(c2)NC(=O)CO3)cc1Cl [ASAP-0000195] was tested, and the perc_inhibition_mean (SARS-CoV-2 nsp3-mac1 [1]; concentration 50.0 uM) was -0.368% and the inhibition at 50 µM (SARS-CoV-2 nsp3-mac1 [2]; read-out: perc_inhibition_mean, batch_name=ASAP-0000195-001) was -0.368%.

Work on c1cc(-c2nnc(Sc3ncnc4[nH]ccc34)[nH]2)ccn1 [ASAP-0000196] yielded a perc_inhibition_mean (SARS-CoV-2 nsp3-mac1 [1]; concentration 50.0 uM) of 5.47%, a perc_inhibition_mean (SARS-CoV-2 nsp3-mac1 [1]; concentration 50.0 uM, n=2) of 10.682% and a perc_inhibition_mean (SARS-CoV-2 nsp3-mac1 [1]; concentration 100.0 uM, n=2) of 3.318%. For the same molecule, the inhibition at 50 µM (SARS-CoV-2 nsp3-mac1 [2]; read-out: perc_inhibition_mean, batch_name=ASAP-0000196-001) was 5.47%, the inhibition at 50 µM (SARS-CoV-2 nsp3-mac1 [2]; [3]) was 10.7% and the inhibition at 100 µM (SARS-CoV-2 nsp3-mac1 [2]; [3]) was 3.32%.

With c1coc(CNc2ncnc3[nH]cnc23)c1 [ASAP-0000198] the perc_inhibition_mean (SARS-CoV-2 nsp3-mac1 [1]; concentration 50.0 uM) was 2.634% and the inhibition at 50 µM (SARS-CoV-2 nsp3-mac1 [2]; read-out: perc_inhibition_mean, batch_name=ASAP-0000198-001) was 2.63%.

In the case of c1nc(-c2nc(-c3cc(C4CC4)[nH]n3)no2)c2cc[nH]c2n1 [ASAP-0000199], the perc_inhibition_mean (SARS-CoV-2 nsp3-mac1 [1]; concentration 50.0 uM) is reported as -2.809%, the perc_inhibition_mean (SARS-CoV-2 nsp3-mac1 [1]; concentration 50.0 uM, n=2) is reported as -4.799% and the perc_inhibition_mean (SARS-CoV-2 nsp3-mac1 [1]; concentration 100.0 uM, n=2) is reported as -2.454%. The inhibition at 50 µM (SARS-CoV-2 nsp3-mac1 [2]; read-out: perc_inhibition_mean, batch_name=ASAP-0000199-001) was -2.81%, the inhibition at 50 µM (SARS-CoV-2 nsp3-mac1 [2]; [4]) was -4.8% and the inhibition at 100 µM (SARS-CoV-2 nsp3-mac1 [2]; [4]) was -2.45%.

Cc1cc(C(F)(F)F)nn1CCNc1ncnc2[nH]ccc12 [ASAP-0000200] showed a perc_inhibition_mean (SARS-CoV-2 nsp3-mac1 [1]; concentration 50.0 uM) of 4.602%, a perc_inhibition_mean (SARS-CoV-2 nsp3-mac1 [1]; concentration 50.0 uM, n=2) of -3.037% and a perc_inhibition_mean (SARS-CoV-2 nsp3-mac1 [1]; concentration 100.0 uM, n=2) of -2.206%. It also gave an inhibition at 50 µM (SARS-CoV-2 nsp3-mac1 [2]; read-out: perc_inhibition_mean, batch_name=ASAP-0000200-001) of 4.6%, an inhibition at 50 µM (SARS-CoV-2 nsp3-mac1 [2]; [5]) of -3.04% and an inhibition at 100 µM (SARS-CoV-2 nsp3-mac1 [2]; [5]) of -2.21%.

CC[C@@H]1C[C@@H](C(=O)Nc2ncnc3[nH]c(C)c(C)c23)CCO1 [ASAP-0000201] gave a perc_inhibition_mean (SARS-CoV-2 nsp3-mac1 [1]; concentration 50.0 uM) of 12.08% and an inhibition at 50 µM (SARS-CoV-2 nsp3-mac1 [2]; read-out: perc_inhibition_mean, batch_name=ASAP-0000201-001) of 12.1%.

Source: paper doi:10.1101/2024.08.19.608619, “Discovery of potent SARS-CoV-2 nsp3 macrodomain inhibitors uncovers lack of translation to cellular antiviral response” (bioRxiv, 2024)
